Assay results reported in US20170027902A1, “Use of a Composition Comprising a Flavonol, A Flavonoid, and a Fatty Acid in the Treatment of Oxidative Injuries Due to Mitochondrial Dysfunction” (priority 2014, published 2017).

Tests used:
[1] = test system: primary mouse cortical cultures; assay: Confocal imaging of calcium transients and mitochondrial membrane potential; type: cell-based; settings: for number of neurons displaying elevated [Ca2+]c / oscillations: 3 μg/ml (~10 μM); for number / frequency of [Ca2+]c oscillations in cortical neurons: Q 3 μg/ml added after pretreatment with E 3 μg/ml
Experimental: Embryonic day 16 timed pregnant CD1 out-bred mice were obtained from Charles River Laboratories (Charles River; QC, Canada). Primary cortical neuron cultures were prepared from cerebral cortices of wild type (WT) CD1 mouse embryos as described previously, with the following modifications. Pregnant CD1 females were heavily anaesthetized with isoflurane vapor (Benson Medical Industries, Inc., Markham, ON) before being euthanized by decapitation. The embryonic day 16 (E16) fetuses were immediately removed from the sacrificed pregnant females by cesarean section and placed in ice-cold Hank's Balanced Salt Solution (HBSS) (GIBCO; Invitrogen, Amarillo, Calif.). The meninges were removed from the brains and cortices were isolated under a dissecting microscope. The cortices from each embryo were placed in individual wells of a 24-well plate (Corning; Lowell, Mass.), containing 1 ml of ice-cold PBS (GIBCO; […] Under sterile conditions, the tissue was briefly minced, transferred to 15 ml sterile conical tubes (Corning; Lowell, Mass.) and centrifuged at 350×g for 3 min at room temperature. The dissecting solution was discarded and the cortical neurons were then dissociated trituration with fire-polished glass pipettes followed by incubating in 1 ml of 0.1% trypsin solution (0.1% w/v trypsin (Invitrogen, Amarillo, Calif.) in PBS with 1 mM Mg^2+ and 13 mM glucose) at 37° C. for 15 min. The trypsinization was inhibited by the addition of 0.5 ml of trypsin inhibitor solution that also contained DNase I (0.06% w/v trypsin inhibitor (Invitrogen; Amarillo, Calif.) and 0.01% DNase I (Invitrogen; […] The tubes were mixed briefly and the cells were centrifuged at 350×g for 3 min at room temperature. The trypsin and inhibitor solutions were discarded and each cell pellet was suspended in 1 ml of cortical neuron plating medium (Neurobasal medium (Invitrogen, Amarillo, Calif.) with 10% fetal bovine serum (GIBCO; Invitrogen; Amarillo, Calif.), 2% B27 supplement, 1 mM L-glutamine, and 1% Gentamycin (Invitrogen; […] Cortical neurons were plated in 96-well plates (Corning; Lowell, Mass.) that were pre-coated with poly-D-lysine (PDL; Sigma-Aldrich; Oakville, ON) according to the procedure described by the manufacturer. Briefly, plates were coated immediately before use with 100 μg/ml PDL for 5-10 min (50 μl/well), washed three times with tissue-culture grade water and left to dry for 2 h before cells were introduced. Cortical neurons were plated at a concentration of 1×10^6 cells/ml (100 µl/well) and medium was completely changed the day after plating to serum-free cortical neuron medium (Neurobasal medium with 2% B27 supplement, 5 mM HEPES, 0.5 mM L-glutamine, and 20 μg/ml Gentamycin), which was replaced every 3 days in culture. Cultures were maintained in a humidified, 37° C. incubator with 5% CO2. Experiments were performed on the eighth day in vitro (DIV10). For measurements of mitochondrial membrane potential (ΔΨm), cells were loaded with 25 nM tetrannethylrhodamine methyl ester (TMRM) for 30 min at room temperature and the dye was present during the experiment. TMRM is used in the redistribution mode to assess ΔΨm with a reduction in TMRM fluorescence indicating mitochondrial depolarization. Neurons were loaded for 30 min at room temperature with X-rhod-1 AM (0.5 μM) and Fluo-3 AM (0.5 μM) (Molecular Probes, Invitrogen) prior to imaging in HEPES-buffered salt solution (HBSS) composed of (mM): 156 NaCl, 3 KCl, 2 MgSO4, 1.25 KH2PO4, 2 CaCl2, 10 glucose and 10 HEPES, pH adjusted to 7.35 with NaOH. Confocal images were obtained using a 510 CLSM (Zeiss, Thornwood, N.Y.) equipped with a META detection system and a […] oil-immersion objective. The 488 nm Argon laser line was used to excite fluo-3 fluorescence, which was measured using a bandpass filter from 505 to 550 nm. Illumination intensity was kept to a minimum (at 0.1-0.2% of laser output) to avoid phototoxicity and the pinhole was set to give an optical slice of 2 μm. […]

[2] = test system: primary cultures of mouse cortical neurons; assay: Toxicity of high concentrations to cortical neuron cultures; type: cell-based; settings: concentrations of 10 μg/ml or above
[3] = ten minutes after addition, fluo-3
[4] = sequential addition of 0.3 and 1 μM

Row | Compound | [Ca2+]c oscillations in a cortical neuron ([1]; 3 μg/ml (~10 μM) alone) | [Ca2+]m (mitochondrial) oscillations, x-rhod-1 ([1]; 3 μg/ml (~10 μM) alone) | [Ca2+]c oscillations in a cortical neuron ([1]; 3 μg/ml (~10 μM) alone, listed as epicatechin) | number of neurons displaying elevated [Ca2+]c / oscillations [1, 3] | number of neurons displaying elevated [Ca2+]c / oscillations ([1]; ten minutes after addition, fluo-3, listed as epicatechin) | number / frequency of [Ca2+]c oscillations in cortical neurons [1] | toxicity to primary cultures of mouse cortical neurons [2] | number of neurons displaying [Ca2+]c oscillations ([1]; 1 μg/ml (~3 μM), ten minutes after addition, fluo-3) | number of neurons displaying [Ca2+]c oscillations ([1]; 1 μg/ml (~3 μM), ten minutes after addition, fluo-3, listed as quercetin) | number of neurons displaying elevated [Ca2+]c / oscillations ([1]; ten minutes after addition, fluo-3, listed as quercetin) | frequency of neuronal [Ca2+]c oscillations ([1]; 1 and 3 μg/ml (~3-10 μM), concentration-dependent) | mitochondrial membrane potential (TMRM) ([1]; 1 and 3 μg/ml (~3 and 10 μM)) | [Ca2+]m (mitochondrial) oscillations, x-rhod-1 ([1]; Q 3 μg/ml added after E 3 μg/ml) | number of neurons displaying [Ca2+]c oscillations ([1]; Q 3 μg/ml added after E 3 μg/ml, ten minutes later) | number of neurons displaying [Ca2+]c oscillations ([1]; Q 3 μg/ml added after E 3 μg/ml, ten minutes later, listed as quercetin) | [Ca2+]c oscillations (fluo-4) [1, 4] | basal [Ca2+]c [1, 4] | mitochondrial membrane potential (TMRM) [1, 4]
1 | Oc1cc(O)c2c(c1)O[C@H](c1ccc(O)c(O)c1)[C@H](O)C2 [E, (2R,3R)-2-(3,4-dihydroxyphenyl)-3,4-dihydro-2H-chromene-3,5,7-triol] | did not trigger | did not trigger | did not increase | no change | did not increase | enhanced the frequency | increasingly toxic |  |  |  |  |  |  |  |  |  |  | 
2 | O=c1c(O)c(-c2ccc(O)c(O)c2)oc2cc(O)cc(O)c12 [Q] |  |  |  | further elevation |  | supra-additive increase | increasingly toxic | small increase | increased | increased | increased the frequency | modestly elevated | induction | did increase | increased | concentration dependent stimulation | moderate rise | elevation
